Test results published in paper PMC12649225, “Machine Learning-Identified Potent Antimicrobial Peptides Against Multidrug-Resistant Bacteria and Skin Infections” (Antibiotics, 2025).

How the values were obtained:
A. baumannii RUH875 [1] = format: cell-based
Procedure: (§1) The bacterial strains used in this study included S. aureus JAR060131 [54] and the MDR ESKAPE pathogens Enterococcus faecium LUH15122, S. aureus LUH14616, Klebsiella pneumoniae LUH15104, A. baumannii RUH875 [55], Pseudomonas aeruginosa LUH15103, Enterobacter cloacae LUH15114, and the colistin-resistant Escherichia coli LUH15117. Before each experiment, bacteria from frozen stocks were cultured at 37 °C for 18–24 h on sheep blood agar plates (BioMérieux, Marcy-l’Étoile, France). All strains were then cultured from colonies either in tryptic soy broth (TSB; Oxoid, Basingstoke, UK) for A. baumannii, S. aureus, and E. faecium, or in brain heart infusion broth (BHI; Oxoid) for K. pneumoniae, P. aeruginosa, E. cloacae, and E. coli at 37 °C with shaking at 120 rpm for 18–24 h. Subsequently, bacteria were cultured to mid-logarithmic phase in the media described above at 37 °C with shaking at 120 rpm for 3 h. Bacteria were then washed twice with PBS and diluted to the required inoculum suspension concentration in Roswell Park Memorial Institute (RPMI)-1640 medium containing 20 mM HEPES and L-glutamine but without sodium bicarbonate (Sigma-Aldrich; hereafter referred to as RPMI), based on optical density at 620 nm. RPMI was selected because it supports bacterial growth without impairing AMP activity.
(§2) Bactericidal activity was assessed as described by de Breij et al.. Briefly, mid-logarithmic phase bacterial cultures were diluted to a final concentration of 1 × 10^7 colony-forming units (CFU)/mL in RPMI. Then, 10 µL was added to a final volume of 100 µL in RPMI (final concentration: 1 × 10^6 CFU/mL). Cultures were exposed to peptides either in RPMI or RPMI supplemented with 50% (v/v) human plasma (hereafter referred to as 50% plasma), obtained from four healthy volunteers after informed consent, frozen after collection, and pooled (Sanquin, Amsterdam, The Netherlands). Assays were performed in duplicate using round-bottom polypropylene microtiter plates (Costar, Arlington, VA, USA) and repeated three times. In the initial screening phase (Table 1, Table 2 and Table S1), peptide solutions of 1, 10, and 100 μM (final concentration) were tested against A. baumannii RUH875 and S. aureus JAR060131 in RPMI and in 50% plasma. After this selection process, two lead candidates, their RI variants, and reference peptides were tested with a final concentration range of 0.12 to 120 µM (two-fold dilutions) in RPMI and in 50% plasma (Table 3). The peptides were also tested against ESKAPE pathogens, with Synthetic Antimicrobial and Antibiofilm Peptide (SAAP)-148 as a reference peptide (Table 4).RPMI or 50% plasma served as no-treatment controls. After 2 and 18 h of incubation at 37 °C with shaking at 120 rpm in a humidified environment, the numbers of viable bacteria were quantified. Bactericidal activity was expressed as the lethal concentration 99.9% (LC99.9), defined as the lowest peptide concentration that killed ≥99.9% of bacteria within 2 h (LC99.9_2h) or 18 h (LC99.9_18h) compared to the initial inoculum.

E. cloacae LUH15114 = format: cell-based
Procedure: as §1, §2

E. coli LUH15117 = format: cell-based
Procedure: as §1, §2

E. faecium LUH15122 = format: cell-based
Procedure: as §1, §2

K. pneumoniae LUH15104 = format: cell-based
Procedure: as §1, §2

P. aeruginosa LUH15103 = format: cell-based
Procedure: as §1, §2

S. aureus JAR060131 [2] = format: cell-based
Procedure: as §1, §2

S. aureus LUH14616 = format: cell-based
Procedure: as §1, §2

MDR ESKAPE pathogens = assay: Bactericidal activity (LC99.9), statements for the whole panel; format: cell-based; details: range over species
Procedure: as §1, §2

A. baumannii RUH875 [3] = assay: SYTOX Green membrane permeabilization assay; format: cell-based, Acinetobacter baumannii; details: 1- and 2-fold the LC99.9_2h concentrations; over 90 min; RPMI, 1 μM SYTOX Green
Procedure: (§3) Control samples were exposed to RPMI only. As a positive control, heat-killed bacteria were incubated at 95 °C for 10 min to induce maximum membrane permeabilization. Fluorescence (excitation: 485 nm, emission: 520 nm) was monitored every minute for 90 min at 37 °C using a […] plate reader (Ortenberg, Germany), with peptides and positive controls added after the third cycle. Background fluorescence (SYTOX Green alone) was subtracted from all values. All assays were performed in triplicate and repeated twice independently.

S. aureus JAR060131 [4] = assay: SYTOX Green membrane permeabilization assay; format: cell-based, Staphylococcus aureus; details: at both sublethal and lethal concentrations
Procedure: as §3

For Ac-KRWVKILKKVWRFL-NH2 [GDST-045], the “LC99.9 A. baumannii RUH875 50% Plasma 2 h” value (A. baumannii RUH875 [1]; RUH875, 2 h) was 1.88 µM, the “LC99.9 A. baumannii RUH875 50% Plasma 18 h” value (A. baumannii RUH875 [1]; RUH875, 18 h) was 0.94 µM and the “LC99.9 E. cloacae LUH15114 50% Plasma 2 h” value (E. cloacae LUH15114; LUH15114, 2 h) was 60 µM. For the same substance, the “LC99.9 E. cloacae LUH15114 RPMI 2 h” value (E. cloacae LUH15114; LUH15114, 2 h) was 1.88 µM, the “LC99.9 E. cloacae LUH15114 50% Plasma 18 h” value (E. cloacae LUH15114; LUH15114, 18 h) was 30 µM and the “LC99.9 E. cloacae LUH15114 RPMI 18 h” value (E. cloacae LUH15114; LUH15114, 18 h) was 1.88 µM. For the same substance, the “LC99.9 E. coli LUH15117 RPMI 2 h” value (E. coli LUH15117; LUH15117, 2 h) was 0.94 µM, the “LC99.9 E. coli LUH15117 RPMI 18 h” value (E. coli LUH15117; LUH15117, 18 h) was 0.94 µM and the “LC99.9 E. faecium LUH15122 50% Plasma 2 h” value (E. faecium LUH15122; LUH15122, 2 h) was 0.94 µM. The “LC99.9 E. faecium LUH15122 RPMI 2 h” value (E. faecium LUH15122; LUH15122, 2 h) was 0.94 µM, the “LC99.9 E. faecium LUH15122 50% Plasma 18 h” value (E. faecium LUH15122; LUH15122, 18 h) was 3.75 µM and the “LC99.9 E. faecium LUH15122 RPMI 18 h” value (E. faecium LUH15122; LUH15122, 18 h) was 0.94 µM. For the same substance, the “LC99.9 K. pneumoniae LUH15104 50% Plasma 2 h” value (K. pneumoniae LUH15104; LUH15104, 2 h) was 15 µM, the “LC99.9 K. pneumoniae LUH15104 RPMI 2 h” value (K. pneumoniae LUH15104; LUH15104, 2 h) was 0.94 µM and the “LC99.9 K. pneumoniae LUH15104 50% Plasma 18 h” value (K. pneumoniae LUH15104; LUH15104, 18 h) was 7.5 µM. The “LC99.9 K. pneumoniae LUH15104 RPMI 18 h” value (K. pneumoniae LUH15104; LUH15104, 18 h) was 1.88 µM, the “LC99.9 P. aeruginosa LUH15103 50% Plasma 2 h” value (P. aeruginosa LUH15103; LUH15103, 2 h) was 60 µM and the “LC99.9 P. aeruginosa LUH15103 RPMI 2 h” value (P. aeruginosa LUH15103; LUH15103, 2 h) was 1.88 µM. For the same substance, the “LC99.9 P. aeruginosa LUH15103 50% Plasma 18 h” value (P. aeruginosa LUH15103; LUH15103, 18 h) was 30 µM, the “LC99.9 P. aeruginosa LUH15103 RPMI 18 h” value (P. aeruginosa LUH15103; LUH15103, 18 h) was 3.75 µM and the “LC99.9 S. aureus JAR060131 50% Plasma 2 h” value (S. aureus JAR060131 [2]; JAR060131, 2 h) was 3.75 µM. For the same substance, the “LC99.9 S. aureus JAR060131 RPMI 2 h” value (S. aureus JAR060131 [2]; JAR060131, 2 h) was 0.94 µM, the “LC99.9 S. aureus JAR060131 50% Plasma 18 h” value (S. aureus JAR060131 [2]; JAR060131, 18 h) was 1.88 µM and the “LC99.9 S. aureus LUH14616 50% Plasma 2 h” value (S. aureus LUH14616; LUH14616, 2 h) was 15 µM. The “LC99.9 S. aureus LUH14616 RPMI 2 h” value (S. aureus LUH14616; LUH14616, 2 h) was 0.94 µM, the “LC99.9 S. aureus LUH14616 50% Plasma 18 h” value (S. aureus LUH14616; LUH14616, 18 h) was 1.88 µM and the “LC99.9 S. aureus LUH14616 RPMI 18 h” value (S. aureus LUH14616; LUH14616, 18 h) was 0.94 µM. For the same substance, the “Concentrations killing ESKAPE pathogens in 50% plasma within 2 h” value (MDR ESKAPE pathogens; 50% plasma, 2 h) was 0.94 to 120 µM, the “Concentrations killing ESKAPE pathogens in 50% plasma after 18 h” value (MDR ESKAPE pathogens; 50% plasma, 18 h) was 0.94 to 30 µM and the “Concentrations killing ESKAPE pathogens in RPMI within 2 h” value (MDR ESKAPE pathogens; RPMI, 2 h) was 0.94 to 15 µM. For the same substance, the “SYTOX fluorescence intensity, A. baumannii” value (A. baumannii RUH875 [3]) was “fluorescence levels similar to heat-killed controls” and the “Time to rise in SYTOX fluorescence intensity after peptide addition, S. aureus” value (S. aureus JAR060131 [4]) was no more than 1 min.
